According to patent US9023865B2, “Compounds that are ERK inhibitors” (Merck Sharp & Dohme Corp., priority 2011, dated 2015):

These compounds were tested against Active Human ERK2 (hERK2) (Homo sapiens (Human), UniProt P28482) (assay: Active Human ERK2 (hERK2) Activity Assay (IMAP-FP)). Conditions: phosphorylated active hERK2, 30 μM ATP; average; read-out: ERK 2 Human average IC50.
Assay type: biochemical
In short: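 Reaction contains 0.5 nM activated hERK2, 900 nM unlabeled plus 80 nM labeled peptide and 30 μM ATP, run 60 min. Quenched with IMAP binding beads in buffer with 24 mM NaCl; fluorescence polarization read after 60 min binding equilibration.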

Active Human ERK2 (hERK2), sequence (P28482 whole entry): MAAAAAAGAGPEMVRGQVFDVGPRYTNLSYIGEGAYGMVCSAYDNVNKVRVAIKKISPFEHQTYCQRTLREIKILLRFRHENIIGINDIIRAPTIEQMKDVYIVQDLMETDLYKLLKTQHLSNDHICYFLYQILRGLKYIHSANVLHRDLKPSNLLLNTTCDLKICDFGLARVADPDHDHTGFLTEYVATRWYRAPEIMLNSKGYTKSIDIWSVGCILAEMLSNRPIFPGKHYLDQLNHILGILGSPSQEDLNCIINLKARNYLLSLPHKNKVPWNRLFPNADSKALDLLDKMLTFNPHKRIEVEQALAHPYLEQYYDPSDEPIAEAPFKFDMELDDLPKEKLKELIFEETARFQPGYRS

Row | SMILES | IC50 [nM]
1 | Cc1cc(-c2n[nH]c3cc(NC(=O)N[C@@H]4C[C@H]4c4ccccc4)ncc23)ccn1 [Example 583] | 0.917
2 | COC(C)CNC(=O)Nc1cc2[nH]nc(-c3ccnc(C)c3)c2cn1 (stereo not drawn) [Example 585] | 1.26
3 | Cc1cc(-c2n[nH]c3cc(NC(=O)NCC4CNC4)ncc23)ccn1 [Example 586] | 1.3
4 | Cn1cc(-c2n[nH]c3cc(NC(=O)NCC4CCC4)ncc23)cn1 [Example 590] | 2.06
5 | O=C(NCC1CCC1)Nc1cc2[nH]nc(-c3ccc(F)cc3)c2cn1 [Example 592] | 2.88
6 | C[C@@H](NC(=O)Nc1cc2[nH]nc(-c3ccc(F)cc3)c2cn1)C1CCCCC1 [Example 594] | 3.78
7 | Cc1cc(-c2n[nH]c3cc(NC(=O)N[C@@H]4CCN(C)C4)ncc23)ccn1 [Example 596] | 4.87
8 | CO[C@@H](C)CNC(=O)Nc1cc2[nH]nc(-c3ccnc(C)c3)c2cn1 [Example 597] | 0.945
9 | COC[C@H](NC(=O)Nc1cc2[nH]nc(-c3ccnc(F)c3)c2cn1)c1ccccc1 [Example 601] | 20.6
10 | COCCNC(=O)Nc1ncc2c(-c3ccnc(C4CC4)c3)n[nH]c2c1F [Example 610] | 3.12
11 | C[C@@H](NC(=O)Nc1cc2[nH]nc(C(C)(C)O)c2cn1)c1ccccc1 [Example 611] | 122
12 | O=C(Nc1cc2[nH]nc(-c3ccc(F)cc3)c2cn1)NC1CCOC1 (stereo not drawn) [Example 612] | 12.6
13 | COC[C@@H](NC(=O)Nc1cc2[nH]nc(-c3ccc4cn(C)nc4c3)c2cn1)c1ccccc1 [Example 614] | 0.481
14 | C[C@@H](NC(=O)Nc1cc2[nH]nc(CO)c2cn1)c1ccccc1 [Example 615] | 6.16
15 | CCOCCNC(=O)Nc1cc2[nH]nc(-c3ccc(F)cc3)c2cn1 [Example 616] | 0.61

Continued by falling IC50, values first:

Row | IC50 [nM] | SMILES
16 | 31.9 | COC[C@H](NC(=O)Nc1cc2[nH]nc(-c3cnn(C)c3)c2cn1)c1ccccc1 [Example 600, 1-[(1R)-2-methoxy-1-phenylethyl]-3-[3-(1-methyl-1H-pyrazol-4-yl)-1H-pyrazolo[4,3-c]pyridin-6-yl]urea]
17 | 30.9 | Cc1cc(-c2n[nH]c3cc(NC(=O)NCC4COC4)ncc23)ccn1 [Example 588]
18 | 16.1 | COCCNC(=O)Nc1cc2[nH]nc(-c3ccnc(OC(C)C)c3)c2cn1 [Example 604]
19 | 12.6 | COC[C@H](NC(=O)Nc1cc2[nH]nc(-c3ccnc(C)c3)c2cn1)c1ccccc1 [Example 587]
20 | 7.68 | COCc1n[nH]c2cc(NC(=O)N[C@H](C)c3ccccc3)ncc12 [Example 599]
21 | 5.83 | O=C(Nc1cc2[nH]nc(-c3ccc(F)cc3)c2cn1)NC1CCOC1 (stereo not drawn) [Example 609]
22 | 3.81 | CCNC(=O)Nc1cc2[nH]nc(-c3ccc(F)cc3)c2cn1 [Example 608]
23 | 3.46 | Cc1cc(-c2n[nH]c3cc(NC(=O)N[C@H](C)C4CCC4)ncc23)ccn1 [Example 595]
24 | 3.42 | Cc1cc(-c2n[nH]c3cc(NC(=O)N[C@H](C)Cc4ccccc4)ncc23)ccn1 [Example 606]
25 | 3.34 | C[C@@H](NC(=O)Nc1cc2[nH]nc(-c3ccnc(F)c3)c2cn1)C1CCCCC1 [Example 593]
26 | 1.55 | CO[C@H](C)CNC(=O)Nc1cc2[nH]nc(-c3ccnc(C)c3)c2cn1 [Example 598]
27 | 1.54 | O=C(NCC1CCC1)Nc1cc2[nH]nc(-c3ccnc(F)c3)c2cn1 [Example 591]
28 | 1.07 | CCOCCNC(=O)Nc1cc2[nH]nc(-c3ccnc(C)c3)c2cn1 [Example 617]
29 | 0.823 | C[C@@H](NC(=O)Nc1cc2[nH]nc(-c3cnn(C)c3)c2cn1)C1CCCCC1 [Example 589]
30 | 0.679 | Cc1cc(-c2n[nH]c3cc(NC(=O)NCC(C)c4ccccc4)ncc23)ccn1 (stereo not drawn) [Example 584]
31 | 0.335 | COC[C@@H](NC(=O)Nc1cc2[nH]nc(-c3ccc(C#N)cc3)c2cn1)c1ccccc1 [Example 607]
32 | 0.326 | COC[C@@H](NC(=O)Nc1cc2[nH]nc(-c3ccnc(C4CC4)c3)c2cn1)c1ccccc1 [Example 605]
33 | 0.297 | COC[C@@H](NC(=O)Nc1cc2[nH]nc(-c3ccc4nn(C)cc4c3)c2cn1)c1ccccc1 [Example 613]
